Laboratory results taken from article PMC7377239, “Cardiovascular Effects of Polychlorinated Biphenyls and Their Major Metabolites” (Environmental Health Perspectives, 2020).
Like-named read-outs stand apart in the source and are kept apart here.

Key:
[1] = system: iCell endothelial cells (human iPSC-derived ECs); assay: High-content imaging cytotoxicity in iCell endothelial cells, 24 h; type: cell-based; settings: Homo sapiens, Endothelial cell, iPSC-EC, 24 hr; for viability at 0.1 µM / activity at 0.1 µM: 0.10 µM; for minimal effective concentration: top concentration 100.00 µM
How it was run: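 Human iPSC-derived endothelial cells (passages 1–5) were grown to a fibronectin-coated monolayer, then exposed 24 h at 37 °C with 0.5% DMSO vehicle. Staining was Hoechst 33342, MitoTracker Orange and calcein AM, read by high-content imaging. Point of departure came from 4-parameter logistic fits, with a 1-SD vehicle cutoff and 100 µM as the top concentration.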

HUVECs = assay: High-content imaging cytotoxicity in HUVECs, 24 h; type: cell-based, human; settings: Homo sapiens, HUVEC, 24 h, HUVECs; for viability at 0.01 µM / activity at 0.01 µM / viability at 0.1 µM / activity at 0.1 µM / viability at 1 µM / activity at 1 µM / viability at 10 µM / activity at 10 µM / viability at 100 µM / activity at 100 µM: 0.00 µM = 100.00; for viability at 0.1 µM / activity at 0.1 µM: 0.10 µM; for minimal effective concentration: top concentration 100.00 µM
How it was run: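 Point-of-departure values derive from four-parameter logistic fits of vehicle-normalized imaging phenotypes (Hoechst 33342, MitoTracker Orange, calcein AM). The fits follow 24 h exposure of HUVEC monolayers at 37°C and 5% CO2, with a top tested concentration of 100μM.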

[2] = 0.00 µM control = 100.00, read-out: endo.cyto.24hr
[3] = 0.00 µM control = 100.00, read-out: endo.mito.24hr
[4] = 0.00 µM control = 100.00, read-out: endo.mitoint.24hr
[5] = 0.00 µM control = 100.00, read-out: endo.nma.24hr
[6] = 0.00 µM control = 100.00, read-out: endo.tc.24hrs
[7] = 24 hr, read-out: huvec.cyto.24hr
[8] = 24 hr, read-out: huvec.mito.24hr
[9] = 24 hr, read-out: huvec.mitoint.24hr
[10] = 24 hr, read-out: huvec.nma.24hr
[11] = 24 hrs, read-out: huvec.tc.24hrs

Oc1cc(Cl)cc(-c2cccc(Cl)c2)c1 [5-OH PCB 11]
viability at 0.01 µM [1, 2]: 99.9% | activity at 0.01 µM [1, 3]: 100% | activity at 0.01 µM [1, 4]: 96.8% | activity at 0.01 µM [1, 5]: 101% | viability at 0.01 µM [1, 6]: 99.9% | viability at 0.1 µM [1, 2]: 100% | activity at 0.1 µM [1, 3]: 100% | activity at 0.1 µM [1, 4]: 93.5% | activity at 0.1 µM [1, 5]: 100% | viability at 0.1 µM [1, 6]: 100% | viability at 1 µM [1, 2]: 102% | activity at 1 µM [1, 3]: 103% | activity at 1 µM [1, 4]: 92.3% | activity at 1 µM [1, 5]: 99.2% | viability at 1 µM [1, 6]: 102% | viability at 10 µM [1, 2]: 102% | activity at 10 µM [1, 3]: 103% | activity at 10 µM [1, 4]: 107% | activity at 10 µM [1, 5]: 98.6% | viability at 10 µM [1, 6]: 102% | viability at 100 µM [1, 2]: 19.9% | activity at 100 µM [1, 3]: 30.3% | activity at 100 µM [1, 4]: 62.5% | activity at 100 µM [1, 5]: 79.6% | viability at 100 µM [1, 6]: 47.2% | minimal effective concentration ([1]; read-out: endo.cyto.24hr POD): 42.3 µM | minimal effective concentration ([1]; read-out: endo.mito.24hr POD): 42.3 µM | minimal effective concentration ([1]; read-out: endo.mitoint.24hr POD): 55 µM | minimal effective concentration ([1]; read-out: endo.nma.24hr POD): 14.2 µM | minimal effective concentration ([1]; read-out: endo.tc.24hrs POD): 43.2 µM | viability at 0.01 µM (HUVECs; [7]): 94.6% | activity at 0.01 µM (HUVECs; [8]): 93.1% | activity at 0.01 µM (HUVECs; [9]): 89.8% | activity at 0.01 µM (HUVECs; [10]): 98.5% | viability at 0.1 µM (HUVECs; [7]): 87.5% | activity at 0.1 µM (HUVECs; [8]): 86.8% | activity at 0.1 µM (HUVECs; [9]): 107% | activity at 0.1 µM (HUVECs; [10]): 111% | viability at 1 µM (HUVECs; [7]): 93.9% | activity at 1 µM (HUVECs; [8]): 93.3% | activity at 1 µM (HUVECs; [9]): 101% | activity at 1 µM (HUVECs; [10]): 99.7% | viability at 10 µM (HUVECs; [7]): 35.9% | activity at 10 µM (HUVECs; [8]): 29.1% | activity at 10 µM (HUVECs; [9]): 17.5% | activity at 10 µM (HUVECs; [10]): 69.5% | viability at 100 µM (HUVECs; [7]): 24.1% | activity at 100 µM (HUVECs; [8]): 13.2% | activity at 100 µM (HUVECs; [9]): 12% | activity at 100 µM (HUVECs; [10]): 77.5% | minimal effective concentration (HUVECs; 24 hr, read-out: huvec.cyto.24hr POD): 0.95 µM | minimal effective concentration (HUVECs; 24 hr, read-out: huvec.mito.24hr POD): 0.84 µM | minimal effective concentration (HUVECs; 24 hr, read-out: huvec.mitoint.24hr POD): 3.3 µM | minimal effective concentration (HUVECs; 24 hr, read-out: huvec.nma.24hr POD): 1.22 µM | viability at 0.01 µM (HUVECs; [11]): 94.6% | viability at 0.1 µM (HUVECs; [11]): 87.5% | viability at 1 µM (HUVECs; [11]): 93.9% | viability at 10 µM (HUVECs; [11]): 36% | viability at 100 µM (HUVECs; [11]): 26.8% | minimal effective concentration (HUVECs; 24 hrs, read-out: huvec.tc.24hrs POD): 0.95 µM
